Legend:
[1] = biological target: T1, Probable glutamate--tRNA ligase, mitochondrial (Mus musculus, UniProt Q9CXJ1); assay: Determination of the Inhibition Type and Constant (Ki); conditions: pH 8; 30 °C
T1 sequence (Q9CXJ1 whole entry): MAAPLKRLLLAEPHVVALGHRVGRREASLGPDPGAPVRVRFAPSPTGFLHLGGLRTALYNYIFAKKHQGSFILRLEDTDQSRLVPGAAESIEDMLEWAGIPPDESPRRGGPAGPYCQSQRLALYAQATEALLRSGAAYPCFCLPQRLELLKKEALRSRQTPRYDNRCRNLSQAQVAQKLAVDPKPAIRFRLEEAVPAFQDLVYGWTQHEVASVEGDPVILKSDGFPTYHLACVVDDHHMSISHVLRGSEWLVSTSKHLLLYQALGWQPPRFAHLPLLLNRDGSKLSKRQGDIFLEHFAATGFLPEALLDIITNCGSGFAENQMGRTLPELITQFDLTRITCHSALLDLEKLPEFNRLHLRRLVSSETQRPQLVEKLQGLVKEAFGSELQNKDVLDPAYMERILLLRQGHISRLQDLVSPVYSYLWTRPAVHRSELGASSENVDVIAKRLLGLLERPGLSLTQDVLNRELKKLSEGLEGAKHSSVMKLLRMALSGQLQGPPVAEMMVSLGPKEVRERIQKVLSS
Protocol: (§1) The Km and Kappm for the amino acid substrate were first calculated from Lineweaver-Burk plots. The Ki values were calculated from the Kappm vs [I] plot. The Ki values for the inhibitors with respect for the amino acid substrates were determined by measuring the apparent Km for the amino acid in the presence of saturating concentrations of both ATP and tRNA, and of various fixed concentrations of the inhibitor.

Glutamate--tRNA ligase = biological target: T2, Glutamate--tRNA ligase (Escherichia coli (strain K12), UniProt P04805); assay: as above; conditions: pH 7.2; 37 °C
T2 sequence (P04805 whole entry): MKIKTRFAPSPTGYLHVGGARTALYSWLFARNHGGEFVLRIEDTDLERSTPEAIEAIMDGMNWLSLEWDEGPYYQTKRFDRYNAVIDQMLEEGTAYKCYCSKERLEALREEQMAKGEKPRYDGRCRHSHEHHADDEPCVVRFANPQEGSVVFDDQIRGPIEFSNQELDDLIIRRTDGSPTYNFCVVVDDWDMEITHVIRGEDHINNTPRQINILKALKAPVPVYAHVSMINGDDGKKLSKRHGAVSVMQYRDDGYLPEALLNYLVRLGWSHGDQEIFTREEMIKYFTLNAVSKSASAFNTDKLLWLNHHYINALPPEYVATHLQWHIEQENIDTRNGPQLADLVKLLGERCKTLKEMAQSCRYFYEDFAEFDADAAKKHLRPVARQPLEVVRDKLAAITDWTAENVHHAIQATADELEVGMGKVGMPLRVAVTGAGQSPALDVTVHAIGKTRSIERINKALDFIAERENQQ
Protocol: as §1

Ki [1] [nM]	Ki (Glutamate--tRNA ligase) [nM]	SMILES
70	2.8	Nc1ncnc2c1ncn2[C@@H]1O[C@H](COS(=O)(=O)NC(=O)[C@@H](N)CCC(=O)O)[C@@H](O)[C@H]1O [5-O-[N-(L-Glutamyl)-sulfamoyl]adenosine 5]
–	15000	Nc1ncnc2c1ncn2[C@@H]1O[C@H](COS(=O)(=O)NC(=O)[C@@H]2CCC(=O)N2)[C@@H](O)[C@H]1O [(5S)-5-{[({[(2R,3S,4R,5R)-5-(6-amino-9H-purin-9-yl)-3,4-dihydroxyoxolan-2-yl]methoxy}sulfonyl)amino]carbonyl}pyrrolidin-2-one]

Reference: BindingDB's records for doi:10.1080/14756360400002007 (Crefsip, 2005)
